Active and inactive are the calls of the source. The calls are words filed in the database; no cut-off is given here.
Experiments:
SH-SY5Y [1] = test: Cytotoxicity against human SH-SY5Y cells assessed as reduction of total cellular NAD(P) level; type: functional, cell-based
SH-SY5Y [2] = test: Cytotoxicity against human SH-SY5Y cells assessed as cell viability after 48 hrs by MTT assay relative to control in presence of NAD; type: functional
CCRF-CEM = test: Growth inhibition of human CCRF-CEM cells by sulforhodamine B assay; type: functional
[3] = Growth inhibition of human […] cells by sulforhodamine B assay; type: functional
HOP-62 = test: Growth inhibition of human HOP62 cells by sulforhodamine B assay; type: functional
HOP-92 = test: Growth inhibition of human HOP92 cells by sulforhodamine B assay; type: functional
NCI-H226 = test: Growth inhibition of human NCI-H226 cells by sulforhodamine B assay; type: functional
NCI-H23 = test: Growth inhibition of human NCI-H23 cells by sulforhodamine B assay; type: functional
NCI-H322M = test: Growth inhibition of human NCI-H322M cells by sulforhodamine B assay; type: functional
NCI-H522 = test: Growth inhibition of human NCI-H522 cells by sulforhodamine B assay; type: functional
COLO 205 = test: Growth inhibition of human COLO205 cells by sulforhodamine B assay; type: functional
HCC 2998 = test: Growth inhibition of human HCC2998 cells by sulforhodamine B assay; type: functional
HCT-116 = test: Growth inhibition of human HCT116 cells by sulforhodamine B assay; type: functional
HCT-15 = test: Growth inhibition of human HCT15 cells by sulforhodamine B assay; type: functional
HT-29 = test: Growth inhibition of human HT-29 cells by sulforhodamine B assay; type: functional
SW-620 = test: Growth inhibition of human SW620 cells by sulforhodamine B assay; type: functional
SF-268 = test: Growth inhibition of human SF268 cells by sulforhodamine B assay; type: functional
SF-295 = test: Growth inhibition of human SF295 cells by sulforhodamine B assay; type: functional
SF-539 = test: Growth inhibition of human SF539 cells by sulforhodamine B assay; type: functional
U-251 = test: Growth inhibition of human U251 cells by sulforhodamine B assay; type: functional
LOX IMVI = test: Growth inhibition of human LOXIMVI cells by sulforhodamine B assay; type: functional
Malme-3M = test: Growth inhibition of human MALME-3M cells by sulforhodamine B assay; type: functional
MDA-MB-435 = test: Growth inhibition of human MDA-MB-435 cells by sulforhodamine B assay; type: functional
SK-MEL-2 = test: Growth inhibition of human SK-MEL-2 cells by sulforhodamine B assay; type: functional
SK-MEL-28 = test: Growth inhibition of human SK-MEL-28 cells by sulforhodamine B assay; type: functional
SK-MEL-5 = test: Growth inhibition of human SK-MEL-5 cells by sulforhodamine B assay; type: functional; settings: read-out: LC50 (the source's name)
UACC-62 = test: Growth inhibition of human UACC62 cells by sulforhodamine B assay; type: functional
OVCAR-3 = test: Growth inhibition of human OVCAR-3 cells by sulforhodamine B assay; type: functional
OVCAR-8 = test: Growth inhibition of human OVCAR8 cells by sulforhodamine B assay; type: functional
NCI/ADR-RES = test: Growth inhibition of human NCI/ADR-RES cells by sulforhodamine B assay; type: functional
SK-OV-3 = test: Growth inhibition of human SKOV3 cells by sulforhodamine B assay; type: functional
A498 = test: Growth inhibition of human A498 cells by sulforhodamine B assay; type: functional
SN12C = test: Growth inhibition of human SN12C cells by sulforhodamine B assay; type: functional
TK-10 = test: Growth inhibition of human TK10 cells by sulforhodamine B assay; type: functional
UO-31 = test: Growth inhibition of human UO31 cells by sulforhodamine B assay; type: functional
MDA-MB-231 = test: Growth inhibition of human MDA-MB-231 cells by sulforhodamine B assay; type: functional
[4] = Growth inhibition of human Hs 578T cells by sulforhodamine B assay; type: functional
T47D = test: Growth inhibition of human T47D cells by sulforhodamine B assay; type: functional
SH-SY5Y [5] = test: Induction of autophagy in human SH-SY5Y cells expressing EGFP-LC3 assessed as colocalization of autophagic vacuoles with lysosomes in acidic compartment of cell at 10 nM; type: functional, cell-based
[6] = read-out: LC50 (the source's name)

Q: Which results are given for `O=C(CCCCCCCn1cc(-c2cccnc2)nn1)Nc1ccccc1-c1ccccc1`?
A: IC50 (SH-SY5Y [1]): 0.003 µM; Activity (SH-SY5Y [2]): 97%; GI50 (CCRF-CEM): 3.28 µM; TGI (CCRF-CEM): > 100 µM; CC50 (CCRF-CEM; [6]): > 100 µM; GI50 [3]: 0.913 µM; TGI [3]: 60.6 µM; CC50 [3, 6]: > 100 µM; GI50 (HOP-62): 23.8 µM; TGI (HOP-62): > 100 µM; CC50 (HOP-62; [6]): > 100 µM; GI50 (HOP-92): 97.4 µM; TGI (HOP-92): > 100 µM; CC50 (HOP-92; [6]): > 100 µM; GI50 (NCI-H226): 15.5 µM; TGI (NCI-H226): 51.7 µM; CC50 (NCI-H226; [6]): > 100 µM; GI50 (NCI-H23): 15.1 µM; TGI (NCI-H23): > 100 µM; CC50 (NCI-H23; [6]): > 100 µM; GI50 (NCI-H322M): 23.1 µM; TGI (NCI-H322M): > 100 µM; CC50 (NCI-H322M; [6]): > 100 µM; GI50 (NCI-H522): 0.0914 µM; TGI (NCI-H522): > 100 µM; CC50 (NCI-H522; [6]): > 100 µM; GI50 (COLO 205): 1.18 µM; TGI (COLO 205): 36 µM; CC50 (COLO 205; [6]): > 100 µM; GI50 (HCC 2998): 0.7 µM; TGI (HCC 2998): > 100 µM; CC50 (HCC 2998; [6]): > 100 µM; GI50 (HCT-116): 0.0403 µM; TGI (HCT-116): > 100 µM; CC50 (HCT-116; [6]): > 100 µM; GI50 (HCT-15): 0.257 µM; TGI (HCT-15): > 100 µM; CC50 (HCT-15; [6]): > 100 µM; GI50 (HT-29): 0.46 µM; TGI (HT-29): > 100 µM; CC50 (HT-29; [6]): > 100 µM; GI50 (SW-620): 0.0615 µM; TGI (SW-620): > 100 µM; CC50 (SW-620; [6]): > 100 µM; GI50 (SF-268): 24.7 µM; TGI (SF-268): > 100 µM; CC50 (SF-268; [6]): > 100 µM; GI50 (SF-295): 0.655 µM; TGI (SF-295): > 100 µM; CC50 (SF-295; [6]): > 100 µM; GI50 (SF-539): 0.0618 µM; TGI (SF-539): > 100 µM; CC50 (SF-539; [6]): > 100 µM; GI50 (U-251): 0.521 µM; TGI (U-251): > 100 µM; CC50 (U-251; [6]): > 100 µM; GI50 (LOX IMVI): 10.1 µM; TGI (LOX IMVI): > 100 µM; CC50 (LOX IMVI; [6]): > 100 µM; GI50 (Malme-3M): 12.2 µM; TGI (Malme-3M): 62.8 µM; CC50 (Malme-3M; [6]): > 100 µM; GI50 (MDA-MB-435): 0.399 µM; TGI (MDA-MB-435): 13.3 µM; CC50 (MDA-MB-435; [6]): > 100 µM; GI50 (SK-MEL-2): 12.8 µM; TGI (SK-MEL-2): 46.2 µM; CC50 (SK-MEL-2; [6]): 57 µM; GI50 (SK-MEL-28): 1.59 µM; TGI (SK-MEL-28): > 100 µM; CC50 (SK-MEL-28; [6]): > 100 µM; CC50 (SK-MEL-5): 42.4 µM; GI50 (UACC-62): 13.3 µM; TGI (UACC-62): 51.4 µM; CC50 (UACC-62; [6]): > 100 µM; GI50 (OVCAR-3): 5.19 µM; TGI (OVCAR-3): > 100 µM; CC50 (OVCAR-3; [6]): > 100 µM; GI50 (OVCAR-8): 0.0574 µM; TGI (OVCAR-8): > 38 µM; CC50 (OVCAR-8; [6]): > 100 µM; GI50 (NCI/ADR-RES): 0.0814 µM; TGI (NCI/ADR-RES): 33.1 µM; CC50 (NCI/ADR-RES; [6]): > 100 µM; GI50 (SK-OV-3): 20.5 µM; TGI (SK-OV-3): > 100 µM; CC50 (SK-OV-3; [6]): > 100 µM; GI50 (A498): 15.9 µM; TGI (A498): > 100 µM; CC50 (A498; [6]): > 100 µM; GI50 (SN12C): 0.0426 µM; TGI (SN12C): > 100 µM; CC50 (SN12C; [6]): > 100 µM; GI50 (TK-10): 18.2 µM; TGI (TK-10): > 100 µM; CC50 (TK-10; [6]): > 100 µM; GI50 (UO-31): 16.9 µM; TGI (UO-31): 93 µM; CC50 (UO-31; [6]): > 100 µM; GI50 (MDA-MB-231): 20.9 µM; TGI (MDA-MB-231): > 100 µM; CC50 (MDA-MB-231; [6]): > 100 µM; GI50 [4]: 20.4 µM; TGI [4]: > 100 µM; CC50 [4, 6]: > 100 µM; GI50 (T47D): 1.23 µM; TGI (T47D): 16 µM; CC50 (T47D; [6]): > 100 µM; Activity (SH-SY5Y [5]): Active

Reference: ChEMBL document CHEMBL1154743, “A novel potent nicotinamide phosphoribosyltransferase inhibitor synthesized via click chemistry” (J Med Chem, 2010)
